Where “and” joins values, the source holds several entries; their conditions need not be identical. Equal entries are not always repeated. Where two headings read alike, the source gives them in different places.
Key:
[1] = UV-vis absorption spectroscopy; conditions: 25 μM in HBSS buffer containing 50% DMSO; for λmax cis: n–π* band; for λmax trans: π–π* band
Method: (§1) The photochemical properties of the photoswitchable ligands (Table 1, Fig. S2–S10) were first characterized by UV-vis absorption spectroscopy.
(§2) Experimental procedures – Photochemistry
(§3) equipped with a thermostated cell holder set at 20 °C. Fits of UV−vis spectroscopy data were generated
(§4) IlluminaIon for all photochemical experiments was executed using a Suter
(§5) instruments Lambda LS with a 300 W full-spectrum lamp connected to a Suter instruments Lambda
For photochemical analyses,
(§6) IlluminaIons for pharmacological experiments were performed in cylindrical clear glass vials with a
(§7) The typi cal di stance between l i ght source and vi al or cuvete was 2 cm.

[2] = Photostationary state by LC-MS at the isosbestic point; conditions: 10 mM in DMSO; for PSStrans (area% trans): after illumination of PSScis state with 434 ± 9 nm; for PSScis (area% cis): after illumination of trans isomer with 360 ± 20 nm
Method: as §1, §2, §3, §4, §5
For photochemical analyses,
as §6, §7

human histamine H1R = molecular target: T1, human histamine H1R (Homo sapiens, UniProt P35367); assay: Competition radioligand binding with [3H]mepyramine on homogenates of HEK293T cells expressing HA-H1R; conditions: for pKi shift: pKi PSScis – pKi trans (log unit)
T1 construct: expressed in transfected cells; host or cells: HEK293T cells, transient expression; cell homogenates
T1 sequence (P35367 whole entry): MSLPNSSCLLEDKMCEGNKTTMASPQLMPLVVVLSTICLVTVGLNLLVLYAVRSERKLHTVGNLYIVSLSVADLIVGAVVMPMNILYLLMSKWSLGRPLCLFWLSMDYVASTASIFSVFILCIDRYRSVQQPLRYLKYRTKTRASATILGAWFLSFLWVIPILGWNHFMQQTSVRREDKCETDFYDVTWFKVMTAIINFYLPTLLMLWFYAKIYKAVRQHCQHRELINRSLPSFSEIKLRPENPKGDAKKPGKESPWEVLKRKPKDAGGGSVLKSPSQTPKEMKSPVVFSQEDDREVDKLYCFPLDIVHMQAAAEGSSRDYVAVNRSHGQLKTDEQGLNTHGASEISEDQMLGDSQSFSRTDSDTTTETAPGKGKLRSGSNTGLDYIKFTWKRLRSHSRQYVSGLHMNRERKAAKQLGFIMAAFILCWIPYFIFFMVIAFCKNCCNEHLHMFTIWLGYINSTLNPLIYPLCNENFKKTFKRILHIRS
Method: For 10c and 12c, continuous illumination at 365 nm was used to counteract the short half-lives of their PSScis states, while for the other compounds PSScis states were obtained by pre-illumination with 360 nm.
Experimental methods – Pharmacology
The homogenates were stored at −20 °C. […] A]erwards, the cell homogenates were incubated with the respecIve (photo)ligands in […]
black 96 well plates (Greiner). During the incubaIon Ime, 10c and 12c were conInuousl y i l l umi nated with 365 nm (10 V, 2 mW, constant mode) light (96 LED array plates, LAD-1, LEDA-x, Bio Research Center Co., Ltd. Izumi, Japan) to account for thei r short-lived cis isomers. A]er a 4-hour incubaIon Ime, the binding reacIon was stopped using a harvester (PerkinElmer). Upon mulIple wa s h ste ps through a polyethyleneimine-coated GF/C ﬁlter plate (PerkinElmer) receptor-bound radioligand was captured by the GF/C ﬁlter plate. A]er drying the GF/C plate, the ﬁlter-bound radioligand was quanIﬁed by scinIllaIon counIng using MicroScint-O and the Wallac MicroBeta counter (PerkinElmer). […]

[3] = Thermal relaxation of PSScis states; conditions: for Approximate t1/2 (thermal relaxation of PSScis): HBSS buffer containing 50% DMSO; for thermal half-lives (approximated dark stability), order of magnitude in words: in buffer
Method: as §1, §2, §3, §4, §5
For photochemical analyses,
as §6, §7

hH1R = conditions: cited from earlier work; for pKi hH1R PSScis: PSScis state; for pKi hH1R trans: trans isomer
gpH1R = tested on: gpH1R; design: method as in PMID 30628180; conditions: cited from earlier work; for pA2 gpH1R PSScis: PSScis state; for pA2 gpH1R trans: trans isomer
[4] = PSScis state obtained by pre-illumination with 360 nm, mean ± SEM, n = 3, read-out: pKi PSScis (converted)
[5] = trans isomer (8: template, not photoswitchable), [3H]mepyramine, mean ± SEM, n = 3, read-out: pKi trans (converted)
[6] = Arrhenius extrapolation to 20 °C
[7] = trans isomer (8: template, not photoswitchable), [3H]mepyramine, mean ± SEM, n = 3
[8] = continuous illumination at 365 nm during 4 h incubation at 25 °C, mean ± SEM, n = 3, read-out: pKi PSScis (converted)

Row | Compound | λmax cis [1] [nm] | λmax trans [1] [nm] | PSStrans (area% trans) [2] [area%] | PSScis (area% cis) [2] [area%] | Ki (human histamine H1R; [4]) [nM] | pKi shift (human histamine H1R) | Ki (human histamine H1R; [5]) | Approximate t1/2 (thermal relaxation of PSScis) [3, 6] [days] | thermal half-lives (approximated dark stability), order of magnitude in words [3] | further results
1 | Clc1ccc2c(c1)CCc1cccnc1C2=C1CCN(Cc2cccc(/N=N/c3ccccc3)c2)CC1 [12b] | 423 | 325 | 81 | 91 | 6.31 | −0.1 | 5.01 nM | 198 | months | –
2 | Clc1ccc2c(c1)CCc1ccc(/N=N/c3ccccc3)nc1C2=C1CCNCC1 [10a] | 429 | 332 | 85 | 91 | 15.8 | −0.5 | 5.01 nM | 38 | months | Ki (human histamine H1R; trans isomer, read-out: Ki trans): 2 nM; fold higher H1R affinity compared to 11b (human histamine H1R; trans isomers): approximately 25 fold; light-induced affinity shift (human histamine H1R; trans vs PSScis): 3.2 fold
3 | Cc1cncc(CN2CCC(=C3c4ccc(Cl)cc4CCc4cccnc43)CC2)c1 [compound 9, rupatadine] | – | – | – | – | – | – | – | – | – | pKi hH1R (hH1R): 8.4
4 | CN1CCN(C2=Nc3ccc(Cl)cc3Oc3ccccc32)CC1 [compound 1] | – | – | – | – | – | – | – | – | – | pKi hH1R (hH1R): 8.1 ± 0.1
5 | Clc1ccc2c(c1/N=N/c1ccccc1)CCc1cccnc1C2=C1CCNCC1 [11c] | 419 | – | 82 | 67 | > 1000 | – | > 1000 nM | 211 | months | pKi PSScis (human histamine H1R; PSScis state obtained by pre-illumination with 360 nm, mean ± SEM, n = 3): <6.0; pKi trans (human histamine H1R; [7]): <6.0
6 | Clc1ccc2c(c1)CCc1cccnc1C2=C1CCN(Cc2ccccc2/N=N/c2ccccc2)CC1 [12c] | – | 329 | – | – | – | −0.1 | 3.98 nM | – | seconds | Ki (human histamine H1R; [8]): 5.01 nM; Approximate t1/2 (thermal relaxation of PSScis) ([3]; 20 °C): 0.000521 days
7 | CN1CCC(Oc2ccccc2/N=N/c2ccccc2)CC1 [compound 6] | – | – | – | – | – | – | – | – | – | pKi hH1R PSScis (hH1R): 5.1; pKi hH1R trans (hH1R): 5.2
8 | c1ccc(/N=N/c2ccc3c(c2)CCc2cccnc2C3=C2CCNCC2)cc1 [11b] | 435 | 338 | 80 | 91 | 501 | −0.6 | 126 nM | 5 | days | –
9 | CN1CCN(/C(=N\c2ccc(/N=N/c3ccc(S(=O)(=O)O)cc3)cc2)c2ccc(Cl)cc2)CC1 [compound 2] | – | – | – | – | – | – | – | – | – | pA2 gpH1R PSScis (gpH1R): 4.7 ± 0.1; pA2 gpH1R trans (gpH1R): 5.9 ± 0.1
10 | Clc1ccc2c(c1)CCc1c(/N=N/c3ccccc3)ccnc1C2=C1CCNCC1 [10c] | 419 | 319 | – | – | – | – | 158 nM | – | minutes | Ki (human histamine H1R; [8]): 158 nM; pKi trans (human histamine H1R; [7]): 6.8 ± 0.0; Approximate t1/2 (thermal relaxation of PSScis) ([3]; 20 °C): 0.0104 days
11 | CCOC(=O)N1CCC(=C2c3ccc(Cl)cc3CCc3cccnc32)CC1 [compound 7, loratadine] | – | – | – | – | – | – | – | – | – | pKi hH1R (hH1R): 6.8 ± 0.1
12 | CN1CCN(/C(=N\c2ccc(/N=N/c3ccc([N+](=O)[O-])cc3)cc2)c2ccc(Cl)cc2)CC1 [compound 3] | – | – | – | – | – | – | – | – | – | pA2 gpH1R PSScis (gpH1R): 4.5 ± 0.1; pA2 gpH1R trans (gpH1R): 6.2 ± 0.1
13 | Clc1ccc2c(c1)CCc1cc(/N=N/c3ccccc3)cnc1C2=C1CCNCC1 [10b] | 430 | 335 | 79 | 87 | 3.98 | −0.3 | 2 nM | 31 | months | –
14 | CN1CCC(Oc2ccccc2Cc2ccccc2)CC1 [compound 4] | – | – | – | – | – | – | – | – | – | pKi hH1R (hH1R): 8.7 ± 0.1
15 | Clc1ccc2c(c1)CCc1cccnc1C2=C1CCN(Cc2ccc(/N=N/c3ccccc3)cc2)CC1 [12a] | 432 | 327 | 83 | 93 | 3.16 | −0.1 | 2.51 nM | 19 | days | –
16 | CN1CCC(Oc2cccc(/N=N/c3ccccc3)c2)CC1 [compound 5] | – | – | – | – | – | – | – | – | – | pKi hH1R PSScis (hH1R): < 5.0; pKi hH1R trans (hH1R): < 5.0
17 | Clc1cc2c(cc1/N=N/c1ccccc1)C(=C1CCNCC1)c1ncccc1CC2 [11a] | 429 | 340 | 79 | 97 | 251 | −0.2 | ~158 nM and 158 nM | 78 | months | –
